{"source": "patent US20220288156A1", "about": "“TREATMENT” (QUEEN MARY UNIVERSITY OF LONDON, priority 2019, published 2022)", "key": {"[1]": {"test_system": "AAC model of heart failure", "assay": "Abdominal aortic constriction (AAC) pressure overload heart failure model, echocardiography", "assay_type": "in vivo, mouse", "conditions": "for fractional shortening (FS %): prevention mode", "excerpt": "Abdominal AAC, a common experimental procedure, was used to elicit pressure overload-induced heart failure in murine models. AAC provides a time-dependent, reproducible model of HF characterised by a significant rise in left ventricular weight, deleterious myocardial dilation, and a reduction in cardiac inotropy, and rise in myocardial fibrosis. Physiologically this mimics some of the clinical features of human aortic stenosis.\nMale C57BL6 mice (Charles River) underwent AAC surgery at 4-5 weeks of age (between 20 and 22 g). Mice were anaesthetised with isoflurane, placed in a supine position on the procedure table, and an incision made along the ventral underbelly, extending from the xiphoid process of the sternum, down to the groin to reveal the abdominal muscle. The abdominal muscle was then cut the same distance along the linea alba to allow easy reattachment of the two halves. The two sides of the abdominal muscles were clipped back to reveal the abdominal gastrointestinal organs, and these were carefully manoeuvred to expose the underlying abdominal aorta. The aorta was cleaned of visceral fats, and carefully separated from parallel vasculature, whilst avoiding any spinal nerves. The abdominal aorta was then constricted using a 6-0 silk suture tied to the width of a 27-gauge needle at a position rostral to the renal artery bifurcation. Great care was taken to ensure the knot remained taut after tying. This was to ensure minimal variability amongst aortic lumen occlusion between animals, and therefore minimise differences in the degree of aortic stenosis. The skin and abdominal muscles were closed with a 6-0 silk suture thread. SHAM operated mice underwent the same operation with the exception of aortic constriction. In an effort to ensure reproducibility amongst AAC surgeries only male mice weighing between 20 and 22 g (correlating to 4-5 weeks of age) were used. Echocardiography was performed up to 3 days prior to surgery, 3 weeks following surgery, and then at 6 (and/or 12 weeks) following surgery. At the experimental end-point, mice were sacrificed and their lungs, kidneys and hearts excised. Hearts were halved longitudinally and either snap frozen in liquid nitrogen (for immunohistochemistry) or stored in an RNA later stabilisation solution (for RT-quantitative PCR) (ThermoFisher Scientific, Hertfordshire, UK).\nCilengitide (Bachem) was stored as a […] solution in saline at −20° C. prior to use, before thawing and serial diluting to an appropriate concentration with sterile saline for use. Injections were administered 3 times per week at the indicated doses intraperitoneally (IP). Low dose Cilengitide (ldCil) is classified as 50 μg/kg (27).\nCardiac function was assessed by transthoracic echocardiography using a VisualSonics Vevo 770 30-MHz transduction probe. Mice were anaesthetised with isoflurane (1.5% in O2), hair removed from their chest with hair removal cream, and then were placed in a supine position onto a warmed pad (46° C.). The chest was covered in ultrasound gel, and the transduction probe was positioned adjacent to the mitral valve, at the tips of the papillary muscles, and images were taken just below this to ensure positional reproducibility. LV internal diameter (LVID) and LV posterior wall thicknesses at diastole (d) and systole (s) were measured from short-axis M-mode images. LV ejection fraction (EF %) was calculated as follows: LVEF %=[(LVIDd)^3−(LVIDs)^3]/(LVIDd)^3×100; LV fractional shortening (FS %) was calculated as follows: LVFS %=(LVIDd−LVIDs)/LVIDd×100. Values were averaged across three beats. All efforts were made to ensure consistency between mouse echocardiographs, including: pad temperature to be maintained at 46° C., isoflurane anaesthesia at 1.5%, oxygen flow at 1.5 L/M, and cardiac function to be measured in the same anatomical location throughout."}, "[2]": {"test_system": "AAC model of heart failure", "assay": "Cardiac blood vessel density (CD31 immunostaining) in AAC model", "assay_type": "in vivo, mouse", "conditions": "ldCil for 3 weeks", "excerpt": "Male C57BL6 mice (Charles River) underwent AAC surgery at 4-5 weeks of age (between 20 and 22 g). Mice were anaesthetised with isoflurane, placed in a supine position on the procedure table, and an incision made along the ventral underbelly, extending from the xiphoid process of the sternum, down to the groin to reveal the abdominal muscle. The abdominal muscle was then cut the same distance along the linea alba to allow easy reattachment of the two halves. The two sides of the abdominal muscles were clipped back to reveal the abdominal gastrointestinal organs, and these were carefully manoeuvred to expose the underlying abdominal aorta. […] Hearts were halved longitudinally and either snap frozen in liquid nitrogen (for immunohistochemistry) or stored in an RNA later stabilisation solution (for RT-quantitative PCR) (ThermoFisher Scientific, Hertfordshire, UK).\nFor anti-CD31 (BD Bioscience) detection, 5 μm snap-frozen sections were blocked in 5% normal goat serum in PBS for 1 h, followed by incubation with anti-CD31 primary antibody (clone H-3, sc-376764, Santa Cruz, 1:100) in blocking buffer (5% normal goat serum in PBS) for 2 h at room temperature. […] To quantify cardiac blood vessel density, the number of CD31-positive blood vessels present across an entire area of abdominally-orientated cardiac tissue was counted within a field of view taken at 40× magnification. […]"}, "[3]": {"conditions": "intervention mode, AAC surgery, ldCil 50 μg/kg 3 times a week from 3-6 weeks post-surgery"}}}
{"smiles": "CC(C)[C@H]1C(=O)N[C@@H](CCCN=C(N)N)C(=O)NCC(=O)N[C@@H](CC(=O)O)C(=O)N[C@H](Cc2ccccc2)C(=O)N1C", "note": "[Cilengitide, c(f*VRGD)]", "values": [{"measurement": "fractional shortening over time", "setting": "[1]; AAC surgery, ldCil 3-6 weeks post-surgery, between 3 and 6 weeks", "result": "elevated fractional shortening significantly"}, {"measurement": "persistence of fractional shortening rescue after treatment cessation", "setting": "[1]; AAC surgery, ldCil 3-6 weeks post-surgery, followed to 12 weeks", "result": "sustained up until 12 weeks post-surgery"}, {"measurement": "FS % over time", "setting": "[1]; SHAM surgery, ldCil 3-6 weeks post-surgery, between 3 and 6 weeks or 6 and 12 weeks", "result": "not significantly altered"}, {"measurement": "endpoint FS %", "setting": "[1]; [3]", "result": "rescued"}, {"measurement": "endpoint ejection fraction (EF %)", "setting": "[1]; [3]", "result": "rescued"}, {"measurement": "endpoint left ventricular internal diameter during systole (LVID)", "setting": "[1]; [3]", "result": "rescued"}, {"measurement": "fractional shortening (FS %)", "setting": "[1]; AAC surgery, 50 μg/kg IP 3 times a week for 7 weeks immediately after surgery, endpoint 7 weeks", "result": "restored fractional shortening to that observed in SHAM treated mice"}, {"measurement": "fractional shortening (FS %)", "setting": "[1]; AAC surgery, 500 μg/kg IP 3 times a week for 7 weeks", "result": "but not 500 μg/kg, Cilengitide corrects the fractional shortening effects"}, {"measurement": "fractional shortening (FS %)", "setting": "[1]; SHAM surgery, 50 μg/kg IP 3 times a week for 7 weeks", "result": "no significant effect"}, {"measurement": "cardiac blood vessel density", "setting": "[2]; AAC surgery", "result": "significantly enhanced"}, {"measurement": "cardiac blood vessel density", "setting": "[2]; SHAM surgery", "result": "no significant effect"}]}
